Results as given in DBAASP.
Converted amounts (≈) assume the structure as drawn.

Tests used:
Assay in all cases: ≥ marks a high value that may be exact or a test limit, other limits are often not marked, values filed in µg/mL are converted to µM
[1] = test system: Escherichia coli ATCC 25922
[2] = test system: Staphylococcus aureus NCTC 8325
[3] = test system: Escherichia coli NCTC 10418
[4] = test system: Pseudomonas aeruginosa ATCC 27853
[5] = test system: Candida albicans NCYC 1467
[6] = test system: Staphylococcus aureus NCTC 10788
[7] = test system: Staphylococcus aureus NCTC 12493
[8] = test system: Enterococcus faecalis NCTC 12697
[9] = test system: Klebsiella pneumoniae ATCC 43816
[10] = test system: Candida albicans ATCC 90028
[11] = test system: Pseudomonas syringae pv. syringae DSM 10604
[12] = test system: Staphylococcus aureus 90857
[13] = test system: Clavibacter michiganensis subsp. michiganensis DSM 46294
[14] = test system: Pseudomonas corrugata DSM 7228
[15] = test system: Xanthomonas vesicatoria DSM 50861
[16] = test system: Pectobacterium carotovorum subsp. carotovorum DSM 30168
[17] = test system: Pseudomonas syringae pv. tomato DC3000

For `CC[C@H](C)[C@H](NC(=O)CNC(=O)[C@H](CO)NC(=O)[C@@H](NC(=O)[C@@H](NC(=O)[C@H](CCCCN)NC(=O)[C@H](C)NC(=O)[C@H](CC(C)C)NC(=O)[C@H](C)NC(=O)CNC(=O)[C@H](CC(C)C)NC(=O)[C@@H](N)Cc1ccccc1)[C@@H](C)CC)[C@@H](C)CC)C(=O)N[C@@H](Cc1ccccc1)C(N)=O` [FLGALAKIISGIF], the MIC [1] was > 100 µM and the MIC [2] was 4 µM (≈ 5.39 µg/mL).
`CC[C@H](C)[C@H](NC(=O)[C@H](C)NC(=O)[C@H](C)NC(=O)[C@@H]1CCCN1C(=O)[C@@H](NC(=O)[C@H](CC(C)C)NC(=O)[C@H](CCCCN)NC(=O)CNC(=O)[C@H](C)NC(=O)[C@H](CS)NC(=O)[C@H](CCCCN)NC(=O)[C@H](CCCCN)NC(=O)[C@H](CO)NC(=O)[C@@H](NC(=O)[C@H](CCCCN)NC(=O)[C@H](CS)NC(=O)[C@@H](NC(=O)[C@H](CCCCN)NC(=O)[C@H](CC(C)C)NC(=O)[C@@H](NC(=O)[C@H](C)NC(=O)CNC(=O)[C@H](CC(C)C)NC(=O)[C@@H](N)Cc1ccccc1)C(C)C)C(C)C)[C@@H](C)CC)C(C)C)C(=O)O` [FLGAVLKVCKISKKCAGKLVPAAI] was tested, and the MIC [3] was 16 µM (≈ 39.3 µg/mL), the MIC [4] was 128 µM (≈ 315 µg/mL) and the MIC [5] was ≥ 128 µM. For the same compound, the MIC [6] was ≥ 32 µM, the MIC [7] was ≥ 128 µM and the MIC [8] was ≥ 128 µM. For the same compound, the MIC [9] was ≥ 256 µM.
`CC[C@H](C)[C@@H]1NC(=O)[C@H](C)NC(=O)[C@@H](NC(=O)[C@H](Cc2ccccc2)NC(=O)[C@@H](NC(=O)[C@H](CCCCN)NC(=O)[C@H](CO)NC(=O)[C@H](Cc2ccccc2)NC(=O)[C@@H](NC(=O)[C@H](CC(N)=O)NC(=O)[C@H](C)NC(=O)[C@H](C)NC(=O)[C@@H](NC(=O)[C@H](CO)NC(=O)[C@H](C)NC(=O)[C@@H](NC(=O)[C@@H](NC(=O)[C@@H]2CCCN2C(=O)[C@H](CC(C)C)NC(=O)[C@@H](N)Cc2ccccc2)[C@@H](C)CC)[C@@H](C)CC)C(C)C)C(C)C)[C@@H](C)CC)CSSC[C@@H](C(=O)O)NC(=O)[C@H](CCCCN)NC(=O)[C@H](CCCCN)NC(=O)[C@H](CO)NC1=O` [FLPIIASVAANVFSKIFCAISKKC] gave an MIC [1] of 78 µM (≈ 200 µg/mL), an MIC [2] of 27 µM (≈ 69.4 µg/mL) and an MIC [10] of 29 µM (≈ 74.5 µg/mL).
With `CC[C@H](C)[C@@H]1NC(=O)[C@H](C)NC(=O)[C@@H](NC(=O)[C@H](Cc2ccccc2)NC(=O)[C@@H](NC(=O)[C@H](CCCCN)NC(=O)[C@@H]2CCCN2C(=O)[C@H](CC(C)C)NC(=O)[C@@H](N)Cc2ccccc2)[C@@H](C)CC)CSSC[C@@H](C(=O)O)NC(=O)[C@H](CCCCN)NC(=O)[C@H](CCCCN)NC(=O)[C@H]([C@@H](C)O)NC1=O` [FLPKIFCAITKKC] the MIC [3] was ≥ 256 µM, the MIC [4] was > 512 µM and the MIC [5] was ≥ 512 µM. The MIC [6] was ≥ 256 µM, the MIC [7] was ≥ 256 µM and the MIC [8] was ≥ 512 µM. For the same compound, the MIC [9] was ≥ 512 µM.
`CC[C@H](C)[C@H](NC(=O)[C@H](C)NC(=O)[C@H](CO)NC(=O)[C@@H](NC(=O)[C@H](C)NC(=O)[C@H](CCCCN)NC(=O)[C@@H]1CCCN1C(=O)[C@@H](NC(=O)[C@H](CC(C)C)NC(=O)[C@H](CO)NC(=O)[C@H](CC(C)C)NC(=O)[C@@H](N)Cc1ccccc1)[C@@H](C)CC)[C@@H](C)CC)C(=O)N[C@@H](CO)C(=O)N[C@@H](C)C(=O)N[C@@H](CC(C)C)C(=O)N[C@H](C(=O)N[C@@H](CC(N)=O)C(=O)N[C@@H](Cc1cnc[nH]1)C(=O)N[C@@H](Cc1ccccc1)C(N)=O)[C@@H](C)CC` [FLSLIPKAISAISALINHF] was tested, and the MIC [3] was ≥ 512 µM, the MIC [4] was > 512 µM and the MIC [5] was 4 µM (≈ 8.22 µg/mL). The MIC [6] was 2 µM (≈ 4.11 µg/mL), the MIC [7] was ≥ 32 µM and the MIC [8] was ≥ 32 µM. For the same compound, the MIC [9] was ≥ 512 µM.
In the case of `CC[C@H](C)[C@H](NC(=O)[C@H](CCCCN)NC(=O)[C@H](CO)NC(=O)[C@H](Cc1c[nH]c2ccccc12)NC(=O)[C@H](CC(C)C)NC(=O)CN)C(=O)N[C@@H](CCCCN)C(=O)N[C@@H](CC(=O)O)C(=O)N[C@@H](C)C(=O)N[C@@H](C)C(=O)N[C@@H](CCCCN)C(=O)N[C@H](C(=O)N[C@@H](C)C(=O)NCC(=O)N[C@@H](CCCCN)C(=O)N[C@@H](C)C(=O)N[C@@H](C)C(=O)N[C@@H](CC(C)C)C(=O)NCC(=O)N[C@@H](Cc1ccccc1)C(=O)N[C@H](C(=O)N[C@@H](CC(N)=O)C(=O)N[C@@H](CCC(=O)O)C(=O)N[C@@H](CCSC)C(=O)N[C@H](C(N)=O)C(C)C)C(C)C)[C@@H](C)O` [GLWSKIKDAAKTAGKAALGFVNEMV], the MIC [3] is reported as 8 µM (≈ 20.8 µg/mL), the MIC [4] is reported as 16 µM (≈ 41.7 µg/mL) and the MIC [5] is reported as ≥ 64 µM. For the same compound, the MIC [6] was 16 µM (≈ 41.7 µg/mL), the MIC [7] was ≥ 32 µM and the MIC [8] was 16 µM (≈ 41.7 µg/mL). For the same compound, the MIC [9] was 8 µM (≈ 20.8 µg/mL).
With `CC[C@H](C)[C@H](N)C(=O)N1CCC[C@H]1C(=O)N[C@@H](Cc1cnc[nH]1)C(=O)N[C@@H](C)C(=O)N[C@H](C(=O)N[C@@H](CCCCN)C(=O)N[C@@H](C)C(=O)N[C@H](C(=O)N[C@@H](CO)C(=O)N[C@@H](CC(=O)O)C(=O)N[C@@H](CC(C)C)C(=O)N[C@H](C(N)=O)[C@@H](C)CC)[C@@H](C)CC)C(C)C` [IPHAVKAISDLI] the MIC [1] was > 200 µM, the MIC [2] was ≥ 200 µM and the MIC [10] was ≥ 200 µM.
In the case of `CC(C)C[C@H](NC(=O)[C@H](Cc1ccccc1)NC(=O)[C@H](CC(C)C)NC(=O)[C@H](CCCN=C(N)N)NC(=O)[C@H](CC(C)C)NC(=O)[C@H](Cc1ccccc1)NC(=O)[C@H](CC(C)C)NC(=O)[C@H](CCCN=C(N)N)NC(=O)[C@H](Cc1ccccc1)NC(=O)[C@H](CC(C)C)NC(=O)[C@H](CCCN=C(N)N)NC(=O)[C@H](Cc1ccccc1)NC(=O)[C@H](CC(C)C)NC(=O)[C@H](Cc1ccccc1)NC(=O)[C@H](CC(C)C)NC(=O)[C@H](CCCN=C(N)N)NC(=O)[C@H](CCCN=C(N)N)NC(=O)[C@@H](N)CCCCN)C(=O)N[C@@H](CCCCN)C(=O)N[C@@H](CCCCN)C(N)=O` [KRRLFLFRLFRLFLRLFLKK], the MIC [11] is reported as 3.69 µM (≈ 10 µg/mL), the MIC [12] is reported as 4 µM (≈ 10.8 µg/mL) and the MIC [13] is reported as 0.922 µM (≈ 2.5 µg/mL). For the same compound, the MIC [14] was 3.69 µM (≈ 10 µg/mL), the MIC [15] was 0.922 µM (≈ 2.5 µg/mL) and the MIC [16] was 3.69 µM (≈ 10 µg/mL). The MIC [17] was 1.84 µM (≈ 5 µg/mL).
With `CC[C@H](C)[C@H](NC(=O)[C@H](C)NC(=O)[C@H](CC(C)C)NC(=O)[C@H](CCCN=C(N)N)NC(=O)[C@H](CC(C)C)NC(=O)[C@@H](NC(=O)[C@H](CCCN=C(N)N)NC(=O)[C@H](CC(C)C)NC(=O)[C@@H](NC(=O)[C@H](CC(C)C)NC(=O)[C@H](CCCN=C(N)N)NC(=O)[C@H](CCCN=C(N)N)NC(=O)[C@@H](N)CCCCN)[C@@H](C)CC)[C@@H](C)CC)C(=O)N[C@@H](CCCN=C(N)N)C(=O)N[C@@H](C)C(=O)N[C@@H](CC(C)C)C(=O)N[C@H](C(=O)N[C@@H](CCCCN)C(=O)N[C@@H](CCCCN)C(=O)N[C@@H](CCCN=C(N)N)C(N)=O)C(C)C` [KRRLILRILRLAIRALVKKR] the MIC [11] was 2.01 µM (≈ 5 µg/mL), the MIC [12] was 4 µM (≈ 9.94 µg/mL) and the MIC [13] was 0.101 µM (≈ 0.25 µg/mL). For the same compound, the MIC [14] was 2.01 µM (≈ 5 µg/mL), the MIC [15] was 0.101 µM (≈ 0.25 µg/mL) and the MIC [16] was 4.02 µM (≈ 10 µg/mL). The MIC [17] was 4.02 µM (≈ 10 µg/mL).
`CC[C@H](C)[C@H](NC(=O)[C@H](CCCN=C(N)N)NC(=O)[C@H](CCCN=C(N)N)NC(=O)[C@H](CC(C)C)NC(=O)[C@H](Cc1ccccc1)NC(=O)[C@H](CCCN=C(N)N)NC(=O)[C@@H](N)CC(C)C)C(=O)N[C@@H](CC(C)C)C(=O)N[C@@H](CCCN=C(N)N)C(=O)N[C@@H](CCCN=C(N)N)C(=O)N[C@@H](CC(C)C)C(=O)N[C@@H](CC(C)C)C(N)=O` [LRFLRRILRRLL] was tested, and the MIC [11] was 0.308 µM (≈ 0.5 µg/mL), the MIC [12] was 0.625 µM (≈ 1.02 µg/mL) and the MIC [13] was 0.308 µM (≈ 0.5 µg/mL). The MIC [14] was 0.308 µM (≈ 0.5 µg/mL), the MIC [15] was 0.308 µM (≈ 0.5 µg/mL) and the MIC [16] was 1.54 µM (≈ 2.5 µg/mL). It also gave an MIC [17] of 0.615 µM (≈ 0.999 µg/mL).
In the case of `CC(C)C[C@H](NC(=O)[C@H](CCCN=C(N)N)NC(=O)[C@H](CCCCN)NC(=O)[C@H](CCCCN)NC(=O)[C@@H](N)CCCN=C(N)N)C(=O)N[C@@H](CCCCN)C(=O)N[C@H](C(=O)N[C@H](C(=O)N[C@@H](CCCCN)C(=O)N[C@@H](CCCN=C(N)N)C(=O)N[C@@H](CC(C)C)C(=O)N[C@H](C(N)=O)C(C)C)C(C)C)C(C)C` [RKKRLKVVKRLV], the MIC [11] is reported as 3.28 µM (≈ 5 µg/mL), the MIC [12] is reported as ≥ 62.5 µM and the MIC [13] is reported as 6.57 µM (≈ 9.99 µg/mL). For the same compound, the MIC [14] was 6.57 µM (≈ 9.99 µg/mL), the MIC [15] was 6.57 µM (≈ 9.99 µg/mL) and the MIC [16] was 6.57 µM (≈ 9.99 µg/mL). For the same compound, the MIC [17] was 1.64 µM (≈ 2.5 µg/mL).
